Results: ChEMBL document CHEMBL1130439, “Constrained analogues of 2-nor cyclic nucleoside monophosphates” (1997)

Columns and labels:
F2002 cell line [1] = assay: The compound was tested for inhibitory activity against human cytomegalovirus (HCMV) in flow 2002 cells; assay type: functional; settings: read-out: CD50 (the source's name)
F2002 cell line [2] = assay: The compound was tested for inhibitory activity against human cytomegalovirus (HCMV) (WFl strain) in plaque reduction assay in flow 2002 cells; assay type: functional
MT4 [3] = assay: Compound was tested against HIV-l (RF strain) in plaque reduction assay in MT-4 cells; no inhibition up to 100 ug/ml.; assay type: functional, cell-based; settings: Homo sapiens
Vero [4] = assay: Compound was tested against HSV-1 (KOS strain) in plaque reduction assay in Vero cells; no inhibition up to 100 ug/ml.; assay type: functional, cell-based; settings: Chlorocebus sabaeus
Vero [5] = assay: Compound was tested against HSV-2 (186 strain) in plaque reduction assay in Vero cells; no inhibition up to 100 ug/ml.; assay type: functional, cell-based; settings: Chlorocebus sabaeus
MT4 [6] = assay: Compound was tested against HIV-l (RF strain) in plaque reduction assay in MT-4 cells; no inhibition up to 100 ug/ml..; assay type: functional, cell-based; settings: Homo sapiens
F2002 cell line [7] = assay: The compound was tested for inhibitory activity against human cytomegalovirus (HCMV) in flow 2002 cells; no inhibition up to 100 ug/ml.; assay type: functional, cell-based

| SMILES | CC50 (F2002 cell line [1]) [µg/mL] | PD50 (F2002 cell line [2]) [µg/mL] | Activity (MT4 [3]) | Activity (Vero [4]) | Activity (Vero [5]) | Activity (MT4 [6]) | Activity (F2002 cell line [7]) |
| --- | --- | --- | --- | --- | --- | --- | --- |
| N.Nc1ccn(C2CSC3(COP(=O)(O)OC3)O2)c(=O)n1 (stereo not given) | > 100 | 11 | No inhibition | No inhibition | No inhibition |  |  |
| Nc1nc(=O)n(C2CSC3(COP(=O)(O)OC3)O2)cc1F (stereo not given) | > 100 | >100 | No inhibition | No inhibition | No inhibition |  |  |
| N.Nc1nc2c(ncn2C2CSC3(COP(=O)(O)OC3)O2)c(=O)[nH]1 (stereo not given) | > 100 | >100 | No inhibition | No inhibition | No inhibition |  |  |
| O=c1ccn(C2CSC3(COP(=O)(O)OC3)O2)c(=O)[nH]1 (stereo not given) | > 100 | 2.5 |  | No inhibition | No inhibition | No inhibition |  |
| CC(=O)Nc1nc(=O)n(C2CSC(CO)(CO)O2)cc1Br (stereo not given) |  |  |  |  |  |  | No inhibition |
| Cc1cn(C2CSC3(COP(=O)(O)OC3)O2)c(=O)[nH]c1=O (stereo not given) | > 100 | >100 | No inhibition | No inhibition | No inhibition |  |  |
| Nc1nc2c(ncn2COC(CO)CO)c(=O)[nH]1 [GANCICLOVIR] | > 100 | 0.1 |  |  |  |  |  |
| O=c1ccn(C2CSC(CO)(CO)O2)c(=O)[nH]1 (stereo not given) |  |  |  |  |  |  | No inhibition |
| Nc1nc(=O)n(C2CSC3(COP(=O)(O)OC3)O2)cc1Br (stereo not given) | > 100 | 2.5 | No inhibition | No inhibition | No inhibition |  |  |
| CC(=O)Nc1ccn(C2CSC(CO)(CO)O2)c(=O)n1 (stereo not given) |  |  |  |  |  |  | No inhibition |
